The record followed here is US10927076B2, “HSP90B N-terminal isoform-selective inhibitors” (priority 2017, dated 2021).

SMILES strings stand for the structures. Read-outs that look alike come from different tables or passages of the source.

Assay [1] relates to SkBr3. The assay is described as follows: Anti-proliferation activity. Type of assay: cell-based. Conditions: Homo sapiens, SK-BR-3.
Assay [2] has as its system MCF-7. Briefly: Anti-proliferation activity. It counts as cell-based. To be noted: Homo sapiens, MCF7.
Assay [3] deals with NCI-H23 cells. Briefly: Anti-proliferation assay (MTS/PMS, 72 h). Conditions: Homo sapiens, non-small cell lung cancer. Type of assay: cell-based.
Description: Cells were grown to confluence and seeded at 2000 cells/well/0.1 mL in a 96-well plate and placed back in the incubator for 24 h. Compounds or vehicle were administered at the desired concentrations (1% DMSO final concentration) and incubated for 72 h. The % viable cells was determined using the MTS/PMS cell proliferation kit (Promega) per the manufacturer's instructions. Cells treated with vehicle were normalized to 100% proliferation and values adjusted accordingly.
The target of assay [4] is Hsp90α (Homo sapiens (Human), UniProt P07900). Briefly: Fluorescence polarization assay (FITC-GDA tracer displacement). It counts as binding. The procedure:
(§1) Florescence Polarization.
(§2) Assay was performed in 96-well format in black, flat bottom plates (Santa Cruz Biotechnology) with a final volume of 100 μL. […] Compounds were tested in triplicate wells (1% DMSO final concentration). For each plate, wells containing buffer only (background), tracer in buffer only (low polarization control), and protein and tracer in buffer with 1% DMSO (highpolarization control) were included. Plates were incubated at 4° C. with rocking for 24 h. […] Polarization values were correlated to % tracer bound and compound concentrations. The concentration at which the tracer was 50% displaced by the inhibitor was determined using Graphpad Prism.

The target of assay [5] is Hsp90β (Homo sapiens (Human), UniProt P08238). The description is as above. Conditions: for Selectivity: Hsp90β over Hsp90α. It counts as binding. How it is done: as §1, §2
Assay [6] has as its system Grp94. Described as above. It counts as binding. How it is done: as §1, §2
Setting [7] is: fluorescence polarization, read-out: Kd Hsp90β.

Hsp90β, sequence (P08238 whole entry): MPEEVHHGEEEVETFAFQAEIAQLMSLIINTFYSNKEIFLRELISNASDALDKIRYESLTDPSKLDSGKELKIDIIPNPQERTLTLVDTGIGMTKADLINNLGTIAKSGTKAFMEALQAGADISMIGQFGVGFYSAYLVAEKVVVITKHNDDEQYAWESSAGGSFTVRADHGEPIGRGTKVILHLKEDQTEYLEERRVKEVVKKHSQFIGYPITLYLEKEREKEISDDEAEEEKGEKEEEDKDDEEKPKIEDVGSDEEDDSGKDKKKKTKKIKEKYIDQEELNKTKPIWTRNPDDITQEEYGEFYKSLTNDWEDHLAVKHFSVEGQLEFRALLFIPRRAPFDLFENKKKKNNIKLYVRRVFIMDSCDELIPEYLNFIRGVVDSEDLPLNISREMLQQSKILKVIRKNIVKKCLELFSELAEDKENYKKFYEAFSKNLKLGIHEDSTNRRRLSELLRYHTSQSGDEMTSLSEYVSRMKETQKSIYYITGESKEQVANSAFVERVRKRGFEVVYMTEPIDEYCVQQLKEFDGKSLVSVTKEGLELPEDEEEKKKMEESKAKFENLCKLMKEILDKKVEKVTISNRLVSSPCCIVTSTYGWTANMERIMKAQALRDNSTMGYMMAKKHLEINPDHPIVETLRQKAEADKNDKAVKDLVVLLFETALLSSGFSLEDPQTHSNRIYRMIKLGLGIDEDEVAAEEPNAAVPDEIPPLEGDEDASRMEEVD

As for `CC(C)c1cc(C(=O)N2Cc3ccccc3C2)c(O)c2cnoc12`, the IC50 was determined as 38.2 ± 2.75 µM in assay [1] and 28.3 ± 1.47 µM in assay [2].
As to `CC(C)c1cc(C(=O)N2Cc3ccc(F)cc3C2)c(O)c2cnoc12`, the figures for the IC50 in assay [2] and in assay [3] were 16.6 µM and 5.76 µM, respectively.
For `CC(C)c1cc(C(=O)N2Cc3ccc(F)cc3C2)c(O)c(CO)c1O`, the 50% inhibitory concentration (IC50) in assay [2] was found to be 13.2 µM; in assay [3], 2.13 ± 0.7 µM.
`CC(C)c1cc(C(=O)N2Cc3ccccc3C2)c(O)c2[nH]ncc12`: the concentration for half-maximal inhibition (IC50) came to 29.7 µM in assay [1], 19.1 µM in assay [2] and 13.7 µM in assay [3].
With `O=C(c1cc(Br)c2cn[nH]c2c1O)N1Cc2ccccc2C1`, the IC50 in assay [1] was found to be 23.6 µM; in assay [3], 13.4 µM.
Consider `CC(C)c1cc(C(=O)N2Cc3ccccc3C2)c(O)cc1CBr` [Br], for which the Kd in assay [4] (fluorescence polarization) came out at 4.98 ± 0.97 µM; in assay [5] (setting [7]) it was 0.73 ± 0.11 µM.
In the same order, the values of `CCc1cc(O)c(C(=O)N2Cc3ccccc3C2)cc1C(C)C` [CH3] are above 50 µM and above 50 µM.
`CC(C)c1cc(C(=O)N2Cc3ccccc3C2)c(O)cc1C=O` [CHO]: the dissociation constant Kd in assay [4] was found to be 1.21 ± 0.12 µM.
Take `CC(C)c1cc(C(=O)N2Cc3ccccc3C2)c(O)cc1CC#N` [CN]: the Kd in assay [4] (fluorescence polarization) was 2.28 ± 0.12 µM.
Regarding `CC(C)c1cc(C(=O)N2Cc3ccccc3C2)c(O)cc1CCl` [Cl], the Kd in assay [4] (fluorescence polarization) is above 100 µM; in assay [5] (setting [7]), 25.2 ± 1.45 µM.
On to `CC(C)c1ccc(O)c(C(=O)N2Cc3ccccc3C2)c1` [Compound 1], for which the Kd is 3.21 µM in assay [4] (fluorescence polarization) and 1.63 µM in assay [5] (setting [7]). Also, the “selectivity for Hsp90β over Hsp90α” value in assay [5] is reported as around 2 fold.
As for `CC(C)c1cc(C(=O)N2Cc3ccccc3C2)c(O)cc1CC#N` [Compound 2, 2-(5-Hydroxy-4-(isoindoline-2-carbonyl)-2-isopropylphenyl)acetonitrile], the “selectivity for Hsp90β over Hsp90α” value in assay [5] is around 2.5 fold. Besides, the Kd in assay [5] (setting [7]) was 0.97 µM.
For `COCc1cc(O)c(C(=O)N2Cc3ccccc3C2)cc1C(C)C` [Compound 3, (2-Hydroxy-5-isopropyl-4-(methoxymethyl)phenyl)(isoindolin-2-yl)methanone], the “binding to Hsp90α” value in assay [4] (at 10 μM) is recorded as “did not bind”. For the same molecule, the “binding to Hsp90β” value in assay [5] (at 10 μM) is reported as “did not bind”.
`CC(C)c1cc(C(=O)N2Cc3ccccc3C2)c(O)cc1C=O` [Compound 4, 5-Hydroxy-4-(isoindoline-2-carbonyl)-2-isopropylbenzaldehyde] came in with an equilibrium dissociation constant (Kd) in assay [4] of 1.55 µM.
`CC(C)c1cc(C(=O)N2Cc3ccccc3C2)c(O)c(C=O)c1O` [KUNB1, 2,6-Dihydroxy-3-(isoindoline-2-carbonyl)-5-isopropylbenzaldehyde]: in assay [5] (setting [7]), the equilibrium dissociation constant (Kd) was at least 100 µM.
Same read-out and setting: to `C=Cc1c(O)c(C(=O)N2Cc3ccccc3C2)cc(C(C)C)c1O` [KUNB2, (2,4-Dihydroxy-5-isopropyl-3-vinylphenyl)(isoindolin-2-yl)methanone] belongs 5.24 µM; to `CCc1c(O)c(C(=O)N2Cc3ccccc3C2)cc(C(C)C)c1O` [KUNB3, (3-Ethyl-2,4-dihydroxy-5-isopropylphenyl)(isoindolin-2-yl)methanone], 3.31 µM.
On to `CC(C)c1cc(C(=O)N2Cc3ccccc3C2)c(O)c(CN)c1O` [KUNB4, (3-(Aminomethyl)-2,4-dihydroxy-5-isopropylphenyl)(isoindolin-2-yl)methanone], for which the dissociation constant (Kd) in assay [5] was at least 100 µM.
On the same count and under the same terms, in the case of `CCCc1c(O)c(C(=O)N2Cc3ccccc3C2)cc(C(C)C)c1OCOC` [KUNB5, (2-Hydroxy-5-isopropyl-4-(methoxymethoxy)-3-propylphenyl)(isoindolin-2-yl)methanone] it was 6.3 µM.
Molecule `C=CCc1c(O)c(C(=O)N2Cc3ccccc3C2)cc(C(C)C)c1OCOC` [KUNB6, (3-Allyl-2-hydroxy-5-isopropyl-4-(methoxymethoxy)phenyl)(isoindolin-2-yl)methanone] showed a Kd in assay [5] of at least 100 µM.
The molecule `COCOc1c(C(C)C)cc(C(=O)N2Cc3ccccc3C2)c(O)c1CCO` [KUNB7, (2-Hydroxy-3-(2-hydroxyethyl)-5-isopropyl-4-(methoxymethoxy)phenyl) (isoindolin-2-yl)methanone] came in with a Kd in assay [5] of at least 100 µM.
For the molecule `CC(C)c1cc(C(=O)N2Cc3ccccc3C2)c(O)c(CO)c1O` [KUNB14, (2,4-Dihydroxy-3-(hydroxymethyl)-5-isopropylphenyl)(isoindolin-2-yl)methanone], the Kd in assay [5] (setting [7]) was 4.27 µM.
Take `CC(C)c1cc(C(=O)N2Cc3ccccc3C2)c(O)c2c1C1C=NNC1O2` (stereo not drawn) [KUNB17]: the figures for the Kd in assay [4] (fluorescence polarization) and in assay [5] (setting [7]) were at least 10 µM and 0.72 µM, respectively. This molecule registered a Selectivity in assay [5] of at least 14.
In the same order, the values of `CC(C)c1cc(C(=O)N2Cc3ccccc3C2)c(O)c2cn[nH]c12` [KUNB18] are 82.5 µM, 3.71 µM and 22.
Turning to `CC(C)c1cc(C(=O)N2Cc3ccccc3C2)c(O)c2nc[nH]c12` [KUNB19], the dissociation constant Kd in assay [4] (fluorescence polarization) is at least 100 µM; in assay [5] (setting [7]), 6.3 µM. In addition, the Selectivity in assay [5] was 1.6.
In the same order, the values of `CC(C)c1cc(C(=O)N2Cc3ccccc3C2)c(O)c2c1CCC2=O` [KUNB22] are 9.3 µM, 0.11 µM and 85.
`CCC1Cc2c(C(C)C)cc(C(=O)N3Cc4ccccc4C3)c(O)c2C1=O` (stereo not drawn) [KUNB23]: the dissociation constant Kd is at least 10 µM in assay [4] (fluorescence polarization) and 0.58 µM in assay [5] (setting [7]). Moreover, the Selectivity in assay [5] is at least 17.
For `CCCC1Cc2c(C(C)C)cc(C(=O)N3Cc4ccccc4C3)c(O)c2C1=O` (stereo not drawn) [KUNB24], the dissociation constant (Kd) was at least 100 µM in assay [4] (fluorescence polarization) and 2.7 µM in assay [5] (setting [7]). This molecule also showed a Selectivity in assay [5] of at least 37.
On to `CC(C)c1cc(C(=O)N2Cc3ccccc3C2)c(O)c2c1CNC2=O` [KUNB25], for which the Kd in assay [4] (fluorescence polarization) is at least 10 µM; in assay [5] (setting [7]), 0.33 µM. The molecule also returned a Selectivity in assay [5] of at least 30.
The like results for `CCN1Cc2c(C(C)C)cc(C(=O)N3Cc4ccccc4C3)c(O)c2C1=O` [KUNB26] were, in that order, at least 10 µM, 0.53 µM and at least 19.
On to `CC1Cc2c(C(C)C)cc(C(=O)N3Cc4ccccc4C3)c(O)c2C1=O` (stereo not drawn) [KUNB28], for which the Kd in assay [4] (fluorescence polarization) was at least 10 µM; in assay [5] (setting [7]) it was 0.295 µM. Besides, the Selectivity in assay [5] is at least 34.
Take `CC(C)c1cc(C(=O)N2Cc3ccc(F)cc3C2)c2oncc2c1O` [KUNB31b, (5-fluoroisoindolin-2-yl)(4-hydroxy-5-isopropylbenzo[d]isoxazol-7-yl)methanone]: the “selectivity for Hsp90β over Hsp90α” value in assay [5] is reported as around 50 fold. Also, the “selectivity for Hsp90β over Grp94” value in assay [6] is around 50 fold.
As to `CC(C)c1cc(C(=O)N2Cc3ccccc3C2)c(O)cc1N` [NH2], the results for the dissociation constant Kd in assay [4] (fluorescence polarization) and in assay [5] (setting [7]) were 0.46 ± 0.22 µM and 0.71 µM, respectively.
Turning to `CNCc1cc(O)c(C(=O)N2Cc3ccccc3C2)cc1C(C)C` [NHCH3], the dissociation constant Kd in assay [4] (fluorescence polarization) is above 100 µM; in assay [5] (setting [7]) it was 23.2 ± 1.07 µM.
In the case of `CC(C)c1cc(C(=O)N2Cc3ccccc3C2)c(O)cc1CO` [OH], the values for the Kd in assay [4] (fluorescence polarization) and in assay [5] (setting [7]) were 4.21 ± 0.62 µM and 1.97 ± 0.07 µM, respectively.
Consider `COCc1cc(O)c(C(=O)N2Cc3ccccc3C2)cc1C(C)C` [OMe], for which the Kd in assay [4] (fluorescence polarization) and in assay [5] (setting [7]) was above 50 µM each time.
`CC(C)c1cc(C(=O)N2Cc3ccccc3C2)c(O)c(CO)c1O` [drawing 45]: the concentration for half-maximal inhibition (IC50) in assay [1] is 9.13 ± 1.03 µM; in assay [2] it was 13.7 ± 1.46 µM; in assay [3] it was 3.9 ± 0.33 µM.

Usually IC50 stands for the concentration needed to halve the response being measured. Broadly, the Kd is the constant that tells how readily two partners part at equilibrium.
